Tests used:
[1] = tested on: anaplastic thyroid cancer xenograft (8505C-PNIS-PCMV); test: In vivo bioluminescence imaging of F-luc2 (NIS expression); design: species or system Balb/c nude mice; details: 50 mg/kg every day for 5 days, D-luciferin
Description: (§1) Female Balb/c nude mice, 5.5-week old with an average weight of 18.9±0.37 g (mean±standard deviation [SD]), were purchased (Hamamatsu, Shizuoka, Japan). The mice were acclimated under specific pathogen-free conditions for one week before starting the experiment, and were maintained at a temperature of 20 to 25° C. and a relative humidity of 40 to 70%. To establish anaplastic thyroid cancer xenograft mouse models, 8505C-PNIS-PCMV s (5×10^6) were mixed with Matrigel (Corning) at a ratio of 1:1 and injected subcutaneously into the right flank region of each mouse.
In order to examine whether the expression of NIS would be increased by TKI-0266, mice for use in the experiment were divided into two groups (n=5): the vehicle group; and the TKI-0266-administered group (50 mg/kg). 50 mg/kg of TKI-0266 was administered intravenously to the established anaplastic thyroid cancer xenograft mice every day for 5 days. On day 0 (before administration of TKI-0266) and day 6 after the start of administration of TKI-0266, to measure the R-luc signal with IVIS Lumina III, h-coelenterazine (15 μg/ml) was administered to the mice by intravenous injection. Next, D-luciferin (150 μg/ml) was administered intraperitoneally to the mice, and the bioluminescence image (hereinafter referred to as BLI) was acquired.

[2] = tested on: anaplastic thyroid cancer xenograft (8505C-PNIS-PCMV); test: Tumor growth inhibition in xenograft mice (tumor size, R-luc BLI); assay type: in vivo, Balb/c nude mice
Description: as §1
In addition, in order to evaluate the effect of TKI-0266 administration on the treatment of thyroid cancer, mice for use in the experiment were divided into four groups (n=5): the vehicle group; the ^131I-administered group (injected intraperitoneally with 1 mCi Na-^131I on day 2 of the experiment; the TKI-0266-administered group (injected intraperitoneally with 50 mg/kg of TKI-0266 for 5 days); and the group co-administered with ^131I and TKI-0266 (injected intraperitoneally with 50 mg/kg of TKI-0266 for 5 days, and injected intravenously with 1 mCi Na-^131I on day 2; n=5). To measure the degree of tumor growth, h-coelenterazine (15 μg/ml) was administered to the mice by intravenous injection, and then the R-luc activity was monitored by BLI every 5 days.

cleaved caspase-3 = test: Immunohistochemistry of cleaved caspase-3 in tumor tissue; assay type: in vivo, Balb/c nude mice; details: co-administered with 131I and TKI-0266
Excerpt: At the end of the experiment, the mice were sacrificed, and the tumors were isolated from the mouse's right flank and fixed overnight with 4% formalin. The isolated tumors were embedded in paraffin, sectioned to a 4-μm thickness, and mounted on slides. The tumor sections on the slides were de-paraffinized and stained with hematoxylin & eosin. For immunohistochemistry, NIS (Thermo Fisher Scientific; diluted at 1:200) and cleaved caspase-3 (Cell signaling; diluted at 1:200) antibodies were used.

Cc1cc2c(N(C)C3CCCCC3)ncnc2s1 [TKI-0266]
activity of F-luc2 in vivo (NIS expression) [1]: significantly increased | tumor growth rate compared to vehicle group and 131I alone group ([2]; TKI-0266 alone, 50 mg/kg for 5 days): slow tumor growth rate | tumor growth inhibitory effect among the four experimental groups ([2]; co-administered with 131I and TKI-0266): best tumor growth inhibitory effect | R-luc signal intensity ([2]; co-administered with 131I and TKI-0266, day 6 after administration): decreased | R-luc signal intensity ([2]; co-administered with 131I and TKI-0266, day 11 after administration): restored | tumor size on days 6 and 11 ([2]; single agent administration): increase | expression of cleaved caspase-3 indicating cell death (immunohistochemistry) (cleaved caspase-3): the highest

From patent publication US12011447B2, “Pharmaceutical composition for treating thyroid cancer comprising tyrosine kinase activity inhibitor as active ingredient” (Kyungpook National University Industry-Academic Cooperation …, priority 2017, dated 2024)
